Laboratory results published in patent publication US20150119410A1, “BIOMARKERS OF RESPONSE TO NAE INHIBITORS” (MILLENNIUM PHARMACEUTICALS, INC., priority 2011, published 2015).

Columns and labels:
Test in all cases: Cell line panel 1 viability screen
Type in all cases: cell-based
HCT-15 = conditions: Homo sapiens; HCT-15 (intestine); 2 μM MLN4924, 72 hours; DMSO control about 1
Procedure: (§1) To support clinical development and identify potential biomarkers of tumor sensitivity or resistance, two large cancer cell line panels (Panel 1, N=653 (McDermott et al. (2007) PNAS 104:19936-19941); Panel 2, N=240 (O'Day et al. (2010) Fourth AACR International Conference on Molecular Diagnostics in Cancer Therapeutic Development)) were treated with MLN4924 and cell viability data (IC50, EC50, and POC—Percentage of Control) were generated.
(§2) Panel 1 (McDermott et al., supra). The cell lines were exposed to three MLN4924 concentrations (20 nM, 200 nM, and 2 μM) for 72 hours. Viability, i.e., cell number, was quantified by measuring fluorescence of a cell-permeant nucleic acid stain. Mean of triplicate values for each sample were taken and compared to DMSO control to calculate percentage of control. In the results, control or no activity value is given a value of about 1, sensitivity is indicated by a value less than 1, with 0 as death of the entire cell population and resistance indicated by a value greater than 1. A continuum of viability values was obtained for each concentration, so some values were selected as cut-offs for final determination of sensitivity or resistance. For example, median POC values of less than the median value of all POC's recorded in the panel (<0.34) indicated sensitivity, values of 0.34 to 0.75 indicated borderline sensitivity, values greater than the 3rd quartile of all POC's in the panel (>0.75) insensitivity or resistance. […] Final judgment of cell line as sensitive, insensitive or resistant was determined by its viability at 2 μM.

MKN45 = MKN45 (stomach)
Procedure: as §1, §2

MDA-MB-231 = MDA-MB-231 (breast)
Procedure: as §1, §2

CAPAN-1 = CAPAN-1 (pancreas)
Procedure: as §1, §2

SW1573 = SW1573 (lung)
Procedure: as §1, §2

LS-174T = LS-174T (large_intestine)
Procedure: as §1, §2

SW837 = conditions: Homo sapiens; SW837 (intestine); 2 μM MLN4924, 72 hours; DMSO control about 1
Procedure: as §1, §2

MKN28 = conditions: Homo sapiens, MKN-28; MKN28 (stomach); 2 μM MLN4924, 72 hours; DMSO control about 1
Procedure: as §1, §2

SW620 = system: SW620
Procedure: as §1, §2

SW626 = conditions: Homo sapiens; SW626 (ovary); 2 μM MLN4924, 72 hours; DMSO control about 1
Procedure: as §1, §2

MIA-PaCa-2 = MIA-PaCa-2 (pancreas)
Procedure: as §1, §2

CAL-33 = CAL-33 (upper aerodigestive tract)
Procedure: as §1, §2

SW1417 = conditions: Homo sapiens; SW1417 (intestine); 2 μM MLN4924, 72 hours; DMSO control about 1
Procedure: as §1, §2

AsPC-1 = AsPC-1 (Pancreas)
Procedure: as §1, §2

NCl-H630 = NCl-H630 (intestine); 2 μM MLN4924, 72 hours; DMSO control about 1
Procedure: as §1, §2

KYSE-180 = KYSE-180 (oesophagus)
Procedure: as §1, §2

PANC-03-27 = PANC-03-27 (pancreas)
Procedure: as §1, §2

SW 1116 = conditions: Homo sapiens; SW 1116 (intestine); 2 μM MLN4924, 72 hours; DMSO control about 1
Procedure: as §1, §2

YAPC = YAPC (pancreas)
Procedure: as §1, §2

HT55 = conditions: Homo sapiens; HT55 (intestine); 2 μM MLN4924, 72 hours; DMSO control about 1
Procedure: as §1, §2

NUGC-3 = NUGC-3 (stomach)
Procedure: as §1, §2

NCl-H520 = NCl-H520 (lung NSCLC); 2 μM MLN4924, 72 hours; DMSO control about 1
Procedure: as §1, §2

[1] = Homo sapiens, 2 μM MLN4924, 72 hours, DMSO control about 1

## NS(=O)(=O)OC[C@@H]1C[C@@H](n2ccc3c(N[C@H]4CCc5ccccc54)ncnc32)C[C@@H]1O [MLN4924, ((1S,2S,4R)-4-{4-[(1S)-2,3-dihydro-1H-inden-1-ylamino]-7H-pyrrolo[2,3-d]pyrimidin-7-yl}-2-hydroxycyclopentyl)methyl sulphamate]
HCT-15
  viability at 2 µM: 66.5%
MKN45; Homo sapiens, MKN-45, 2 μM MLN4924, 72 hours, DMSO control about 1
  viability at 2 µM: 36.1%
MKN45; SMAD4 mutant
  Phenotype: insensitive (values of 0.34 to 0.75 indicated borderline sensitivity)
MDA-MB-231; [1]
  viability at 2 µM: 52.8%
MDA-MB-231; NF2 mutant
  Phenotype: insensitive (values of 0.34 to 0.75 indicated borderline sensitivity)
CAPAN-1; SMAD4 mutant
  Phenotype: sensitive?
CAPAN-1; [1]
  viability at 2 µM: 14.7%
SW1573; [1]
  viability at 2 µM: 11.1%
SW1573; NF2 and SMAD4 mutant
  Phenotype: sensitive (median POC values of less than the median value of all POC's recorded in the panel (<0.34) indicated sensitivity)
LS-174T; Homo sapiens, LS174T, 2 μM MLN4924, 72 hours, DMSO control about 1
  viability at 2 µM: 32.6%
LS-174T; KDM6A mutant
  Phenotype: sensitive (median POC values of less than the median value of all POC's recorded in the panel (<0.34) indicated sensitivity)
SW837
  viability at 2 µM: 70.2%
MKN28
  viability at 2 µM: 28.5%
SW620; Homo sapiens, SW-620, SW620 (intestine), 2 μM MLN4924, 72 hours, DMSO control about 1
  viability at 2 µM: 49.3%
SW620; SW620 (large_intestine), SMAD4 mutant
  Phenotype: insensitive (values of 0.34 to 0.75 indicated borderline sensitivity)
SW626
  viability at 2 µM: 55.4%
MIA-PaCa-2; [1]
  viability at 2 µM: 11.5%
MIA-PaCa-2; KDM6A mutant
  Phenotype: sensitive (median POC values of less than the median value of all POC's recorded in the panel (<0.34) indicated sensitivity)
CAL-33; SMAD4 mutant
  Phenotype: sensitive (median POC values of less than the median value of all POC's recorded in the panel (<0.34) indicated sensitivity)
CAL-33; [1]
  viability at 2 µM: 14.4%
SW1417
  viability at 2 µM: 63.7%
AsPC-1; FBXW7 mutant
  Phenotype: resistant (values greater than the 3rd quartile of all POC's in the panel (>0.75) insensitivity or resistance)
AsPC-1; Homo sapiens, ASPC1, 2 μM MLN4924, 72 hours, DMSO control about 1
  viability at 2 µM: 98.9%
NCl-H630
  viability at 2 µM: 75%
KYSE-180; [1]
  viability at 2 µM: 21.5%
KYSE-180; KDM6A mutant
  Phenotype: sensitive (median POC values of less than the median value of all POC's recorded in the panel (<0.34) indicated sensitivity)
PANC-03-27; [1]
  viability at 2 µM: 7.24%
PANC-03-27; SMAD4 mutant
  Phenotype: sensitive (median POC values of less than the median value of all POC's recorded in the panel (<0.34) indicated sensitivity)
SW 1116
  viability at 2 µM: 116%
YAPC; [1]
  viability at 2 µM: 18.7%
YAPC; SMAD4 mutant
  Phenotype: sensitive (median POC values of less than the median value of all POC's recorded in the panel (<0.34) indicated sensitivity)
HT55
  viability at 2 µM: 51.4%
NUGC-3; [1]
  viability at 2 µM: 9.8%
NUGC-3; NF2 mutant
  Phenotype: sensitive (median POC values of less than the median value of all POC's recorded in the panel (<0.34) indicated sensitivity)
NCl-H520
  viability at 2 µM: 55.8%
